Experimental data published in patent publication US20190099456A1, “COMPOSITION FOR PROMOTING INTERFERON LAMBDA PRODUCTION AND PRODUCTION METHOD THEREFOR” (KIKKOMAN CORPORATION, priority 2016, published 2019).

Experiments:
BDCA3 DC [1] = assay: Test of promoting interferon λ3 production by BDCA3 DC co-cultured with lactic acid bacteria suspension; format: cell-based, human; conditions: 10 μM chloroquine, 24 hours
Method: First, an MRS medium containing 10% (w/v) salt was inoculated with strain KK221 so that a concentration became 1×10^7 cells/ml, and therefore a stock solution of lactic acid bacteria was prepared. The stock solution of lactic acid bacteria was statically cultured at 30° C. for 48 to 72 hours, and then subjected to a boiling and pasteurization treatment at 95° C. for 10 minutes, and therefore a pasteurization-treated culture solution was prepared. […]
Activity of promoting interferon λ production by the prepared lactic acid bacteria suspension was evaluated as follows by using dendritic cells collected and prepared from the peripheral blood of a non-virus infected healthy subject. […]
The number of cells of each isolated DC was measured, and a cell stock solution was prepared using an IMDM medium (GIBCO) containing 25 mM D-glucose, 25 mM HEPES, and […] so that a concentration became 5×10^4 cells/ml. […]
Using the recovered culture supernatant, interferon λ3 was measured by a chemiluminescent enzyme immunoassay method according to a method described in a document of Sugiyama, et al. [Sugiyama M, et al. Hepatol Res. 42 (11): 1089-1099, 2012]. […]

BDCA3 DC [2] = assay: Test of promoting cytokine production by BDCA3 DC (cytometric beads array); format: cell-based, human; conditions: lactic acid bacteria count/DC count=100
Method: Poly IC or the lactic acid bacteria suspension prepared by using strain KK221 according to Example 1, and BDCA3 DC were prepared and co-cultured so that lactic acid bacteria count/DC count=100, and the measurement of the activity of promoting production of various cytokines was carried out.
Note that each of TNFα, IL-10, IL-1β, IL-6, and IL-12p70 was measured by using cytometric beadsarray (CBA; Becton, Dickinson and Company).

## Poly IC
BDCA3 DC [1]
  activity of promoting interferon λ production according to addition of chloroquine: deteriorated
BDCA3 DC [2]
  production of various cytokines (TNFα, IL-10, IL-1β, IL-6, IL-12p70, interferon α, interferon λ) by BDCA3 DC: nonspecifically promoted production of TNFα, interferon α, IL-6, and the like in addition to interferon λ (IL28B)
